T/C data for 19 compounds are collected here from PubChem BioAssay AID248 (DTP/NCI, 2004).

The test deals with L1210 leukemia ip in BDF1 mice, survival T/C. In words: NCI In Vivo Anticancer Drug Screen. Data for tumor model L1210 Leukemia (intraperitoneal) in B6D2F1 (BDF1) mice. The note with it: endpoint: mean survival time, higher = longer survival. The method, boiled down: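 Read-out is survival time, reported as the treated-group measurement over the vehicle-control measurement.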

[1] abbreviates: dose: 100.0 mg/kg/injection, schedule: Q04DX003 (ip), vehicle: saline with Tween-80.
[2] abbreviates: dose: 200.0 mg/kg/injection, schedule: Q04DX003 (ip), vehicle: saline with Tween-80.
[3] abbreviates: dose: 400.0 mg/kg/injection, schedule: Q04DX003 (ip), vehicle: saline with Tween-80.
The mark [4] stands for this setting: dose: 75.0 mg/kg/injection, schedule: Q01DX001 (ip), vehicle: saline.
Where [5] appears, read: dose: 150.0 mg/kg/injection, schedule: Q01DX001 (ip), vehicle: saline.
Where [6] appears, read: dose: 300.0 mg/kg/injection, schedule: Q01DX001 (ip), vehicle: saline.
[7] abbreviates: dose: 100.0 mg/kg/injection, schedule: Q04DX002 (ip), vehicle: saline with Tween-80.
[8] abbreviates: dose: 200.0 mg/kg/injection, schedule: Q04DX002 (ip), vehicle: saline with Tween-80.
Where [9] appears, read: dose: 400.0 mg/kg/injection, schedule: Q04DX002 (ip), vehicle: saline with Tween-80.
[10] abbreviates: dose: 100.0 mg/kg/injection, schedule: Q04DX003 (ip), vehicle: Klucel (hydroxypropylcellulose) (HPC).
Where [11] appears, read: dose: 200.0 mg/kg/injection, schedule: Q04DX003 (ip), vehicle: Klucel (hydroxypropylcellulose) (HPC).
Where [12] appears, read: dose: 400.0 mg/kg/injection, schedule: Q04DX003 (ip), vehicle: Klucel (hydroxypropylcellulose) (HPC).

Where “and” joins values, the source holds several entries; their conditions need not be identical. Equal values may be shown once. Toxic doses and inconclusive results are not listed.

With `CC1(c2ccccc2)CCC(NN=C(N)N)=NC1` (centres undefined), the T/C was 95 % of control (dose: 15.0 mg/kg/injection, schedule: Q01DX Z (ip), vehicle: methylcellulose (MC)); 97 % of control (dose: 30.0 mg/kg/injection, schedule: Q01DX Z (oral), vehicle: methylcellulose (MC)); 101 % of control (dose: 60.0 mg/kg/injection, schedule: Q01DX Z (ip), vehicle: methylcellulose (MC)); 91 % of control (dose: 60.0 mg/kg/injection, schedule: Q01DX Z (oral), vehicle: methylcellulose (MC)); 95 % of control (dose: 120.0 mg/kg/injection, schedule: Q01DX Z (ip), vehicle: methylcellulose (MC)); 101 % of control (dose: 120.0 mg/kg/injection, schedule: Q01DX Z (oral), vehicle: methylcellulose (MC)). Moreover, the T/C is 93 % of control (dose: 240.0 mg/kg/injection, schedule: Q01DX Z (ip), vehicle: methylcellulose (MC)); 93 % of control (dose: 240.0 mg/kg/injection, schedule: Q01DX Z (oral), vehicle: methylcellulose (MC)); 89 % of control (dose: 375.0 mg/kg/injection, schedule: Q01DX Z (oral), vehicle: methylcellulose (MC)); 93 % of control (dose: 420.0 mg/kg/injection, schedule: Q01DX Z (ip), vehicle: methylcellulose (MC)); 86 % of control (dose: 500.0 mg/kg/injection, schedule: Q01DX Z (oral), vehicle: methylcellulose (MC)); 92 % of control (dose: 600.0 mg/kg/injection, schedule: Q01DX Z (ip), vehicle: methylcellulose (MC)). For the setting “dose: 625.0 mg/kg/injection, schedule: Q01DX Z (oral), vehicle: methylcellulose (MC)”, the T/C is 93 % of control.

As for `COc1cccc(C(=O)O)c1OC`, the T/C is, setting by setting: (dose: 100.0 mg/kg/injection, schedule: Q04DX003 (ip), vehicle: saline sonified) 95 % of control; (dose: 200.0 mg/kg/injection, schedule: Q04DX003 (ip), vehicle: saline sonified) 95 % of control; (dose: 400.0 mg/kg/injection, schedule: Q04DX003 (ip), vehicle: saline sonified) 97 % of control.

Consider `COC(=O)C12C=CC(C1)n1c(=O)n(-c3ccccc3)c(=O)n12` (centres undefined), for which the T/C under setting [1] was 97 % of control, the T/C under setting [2] is 105 % of control and the T/C under setting [3] is 103 % of control.

Turning to `COc1ccc2nc3c4ccccc4scc-3c2c1`, under setting [1], the T/C was 92 % of control.

As for `C=C(C(=O)c1ccccc1)C(NC(C)(C)C)c1ccccc1` (centres undefined), the T/C was 95 % of control (dose: 5.0 mg/kg/injection, schedule: Q01DX001 (ip), vehicle: saline); 98 % of control (dose: 10.0 mg/kg/injection, schedule: Q01DX001 (ip), vehicle: saline); 95 % of control (dose: 20.0 mg/kg/injection, schedule: Q01DX001 (ip), vehicle: saline).

As for `Cc1ccc([N+](=O)[O-])cc1NC(=O)C(Cl)(Cl)Cl`, the T/C was 94 % of control (dose: 100.0 mg/kg/injection, schedule: Q01DX009 (ip), vehicle: saline with Tween-80); 98 % of control (dose: 200.0 mg/kg/injection, schedule: Q01DX009 (ip), vehicle: saline with Tween-80); 100 % of control (dose: 400.0 mg/kg/injection, schedule: Q01DX009 (ip), vehicle: saline with Tween-80).

As to `CC1(CO)COC2(CCCCC2)N1` (centres undefined), the T/C by setting is: under setting [4], 102 % of control; under setting [5], 92 % of control; under setting [6], 96 % of control.

As to `c1ccc(COCc2ccc(C3N(c4ccccc4)CCN3c3ccccc3)o2)cc1`, the T/C by setting is: under setting [7], 96 % of control; under setting [8], 96 % of control; under setting [9], 104 % of control.

As to `CCCCCCCC(=O)Nc1ccc(C)c(C)c1`, the T/C by setting is: under setting [1], 93 % of control; under setting [2], 98 % of control; under setting [3], 93 % of control.

For `CN(C(=O)CCCCl)c1cc([N+](=O)[O-])ccc1OCc1ccccc1`, the T/C is 103 % of control under setting [4], 104 % of control under setting [5] and 103 % of control under setting [6].

Regarding `O=C(CC(=O)c1cccnc1)NC(=O)c1ccccc1`, the T/C is 96 % of control (dose: 100.0 mg/kg/injection, schedule: Q01DX001 (ip), vehicle: other); 86 % of control (dose: 200.0 mg/kg/injection, schedule: Q01DX001 (ip), vehicle: other); 89 % of control (dose: 400.0 mg/kg/injection, schedule: Q01DX001 (ip), vehicle: other).

As to `COc1ccc(-n2c(O)c(N=Nc3ccc(Br)cc3)c(=O)n(-c3ccccc3)c2=S)cc1`, the T/C by setting is: (dose: 50.0 mg/kg/injection, schedule: Q01DX001 (ip), vehicle: Klucel (hydroxypropylcellulose) (HPC)) 102 % of control; (dose: 100.0 mg/kg/injection, schedule: Q01DX001 (ip), vehicle: Klucel (hydroxypropylcellulose) (HPC)) 104 % of control; (dose: 200.0 mg/kg/injection, schedule: Q01DX001 (ip), vehicle: Klucel (hydroxypropylcellulose) (HPC)) 100 % of control.

As to `CN(Cc1cnc2nc(N)nc(N)c2n1)c1c(Cl)cc(C(=O)NC(CCC(=O)O)C(=O)O)cc1Br` (centres undefined), the T/C (dose: 12.5 mg/kg/injection, schedule: Q01DX Z (ip), vehicle: saline) was 162 % of control; the T/C (dose: 25.0 mg/kg/injection, schedule: Q01DX Z (ip), vehicle: saline) was 196 % of control; the T/C (dose: 50.0 mg/kg/injection, schedule: Q01DX Z (ip), vehicle: saline) is 241 % of control and 267 % of control; the T/C (dose: 200.0 mg/kg/injection, schedule: Q01DX Z (ip), vehicle: saline) was 101 % of control.

For `O=C(O)c1c2ccc(=O)cc-2oc2cc(O)ccc12`, the T/C under setting [10] was 92 % of control, the T/C under setting [11] is 92 % of control and the T/C under setting [12] is 89 % of control.

For `O=C1CCC2(CCC(=O)c3ccccc32)C(=O)N1` (centres undefined), the T/C (dose: 50.0 mg/kg/injection, schedule: Q01DX009 (ip), vehicle: Klucel (hydroxypropylcellulose) (HPC)) was 104 % of control; the T/C (dose: 100.0 mg/kg/injection, schedule: Q01DX009 (ip), vehicle: Klucel (hydroxypropylcellulose) (HPC)) was 104 % of control; the T/C under setting [10] is 93 % of control; the T/C (dose: 200.0 mg/kg/injection, schedule: Q01DX009 (ip), vehicle: Klucel (hydroxypropylcellulose) (HPC)) is 104 % of control; the T/C under setting [11] is 93 % of control; the T/C (dose: 400.0 mg/kg/injection, schedule: Q01DX009 (ip), vehicle: Klucel (hydroxypropylcellulose) (HPC)) is 108 % of control. In addition, the T/C under setting [12] is 100 % of control.

On to `CCOc1nc(N)nc(-c2ccc(OC)cc2)c1Br`, for which the T/C was 94 % of control under setting [7], 102 % of control under setting [8] and 97 % of control under setting [9].

In the case of `CCCSCCN=C(N)C(N)=NCCSCCC`, the T/C is, setting by setting: (dose: 25.0 mg/kg/injection, schedule: Q04DX002 (ip), vehicle: saline with Tween-80) 88 % of control; (dose: 50.0 mg/kg/injection, schedule: Q04DX002 (ip), vehicle: saline with Tween-80) 95 % of control; under setting [7], 97 % of control and 101 % of control.

With `CC[N+](CC)(CC)CCCCC[N+](CC)(CC)CC`, the T/C (dose: 12.5 mg/kg/injection, schedule: Q01DX009 (ip), vehicle: water) is 106 % of control; the T/C (dose: 25.0 mg/kg/injection, schedule: Q01DX009 (ip), vehicle: water) is 101 % of control; the T/C (dose: 25.0 mg/kg/injection, schedule: Q04DX003 (ip), vehicle: saline with Tween-80) is 94 % of control; the T/C (dose: 50.0 mg/kg/injection, schedule: Q04DX003 (ip), vehicle: saline with Tween-80) is 94 % of control.

Take `CN(C)c1cc(F)c(C=O)cc1[N+](=O)[O-]`: the T/C runs as follows: (dose: 100.0 mg/kg/injection, schedule: Q01DX009 (ip), vehicle: saline) 100 % of control; (dose: 100.0 mg/kg/injection, schedule: Q04DX003 (ip), vehicle: saline) 113 % of control; (dose: 200.0 mg/kg/injection, schedule: Q01DX009 (ip), vehicle: saline) 105 % of control; (dose: 200.0 mg/kg/injection, schedule: Q04DX003 (ip), vehicle: saline) 105 % of control; (dose: 400.0 mg/kg/injection, schedule: Q01DX009 (ip), vehicle: saline) 100 % of control; (dose: 400.0 mg/kg/injection, schedule: Q04DX003 (ip), vehicle: saline) 98 % of control.
